The values that follow come from patent publication US20240317696A1, “ALKYL CARBOXYLIC ACID COMPOUNDS AND APPLICATION THEREOF” (MEDSHINE DISCOVERY INC., priority 2021, published 2024).

One series deals with sGC (Homo sapiens (Human), UniProt Q02153). Kind of series: cGMP expression test based on LNCap cells (sGC stimulatory activity). The note with it: ODQ present; for MEC: Minimum effective concentration required to stimulate cGMP production in LNCap cells (greater than three times the baseline value); for EC50: cGMP production in LNCap cells. The series is classed as cell-based. How it is done: I. cGMP Expression Test Based on InCap Cells
sGC, sequence (Q02153 whole entry): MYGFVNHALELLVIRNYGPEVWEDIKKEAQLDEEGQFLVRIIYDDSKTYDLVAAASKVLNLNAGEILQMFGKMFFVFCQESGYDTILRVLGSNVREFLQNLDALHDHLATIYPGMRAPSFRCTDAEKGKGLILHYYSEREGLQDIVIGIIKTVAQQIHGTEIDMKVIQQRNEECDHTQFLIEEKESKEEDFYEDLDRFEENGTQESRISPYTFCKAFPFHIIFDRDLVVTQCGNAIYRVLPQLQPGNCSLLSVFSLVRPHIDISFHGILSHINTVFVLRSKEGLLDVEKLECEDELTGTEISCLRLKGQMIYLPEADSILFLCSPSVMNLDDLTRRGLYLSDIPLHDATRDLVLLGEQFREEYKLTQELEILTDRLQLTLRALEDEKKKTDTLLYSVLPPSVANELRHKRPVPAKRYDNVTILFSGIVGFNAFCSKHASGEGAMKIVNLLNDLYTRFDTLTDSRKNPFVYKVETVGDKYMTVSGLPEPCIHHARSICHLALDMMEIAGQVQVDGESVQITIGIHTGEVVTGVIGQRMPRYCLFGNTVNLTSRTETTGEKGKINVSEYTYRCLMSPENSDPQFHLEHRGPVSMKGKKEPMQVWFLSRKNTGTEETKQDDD
sGC, sequence (Q02108 whole entry partner): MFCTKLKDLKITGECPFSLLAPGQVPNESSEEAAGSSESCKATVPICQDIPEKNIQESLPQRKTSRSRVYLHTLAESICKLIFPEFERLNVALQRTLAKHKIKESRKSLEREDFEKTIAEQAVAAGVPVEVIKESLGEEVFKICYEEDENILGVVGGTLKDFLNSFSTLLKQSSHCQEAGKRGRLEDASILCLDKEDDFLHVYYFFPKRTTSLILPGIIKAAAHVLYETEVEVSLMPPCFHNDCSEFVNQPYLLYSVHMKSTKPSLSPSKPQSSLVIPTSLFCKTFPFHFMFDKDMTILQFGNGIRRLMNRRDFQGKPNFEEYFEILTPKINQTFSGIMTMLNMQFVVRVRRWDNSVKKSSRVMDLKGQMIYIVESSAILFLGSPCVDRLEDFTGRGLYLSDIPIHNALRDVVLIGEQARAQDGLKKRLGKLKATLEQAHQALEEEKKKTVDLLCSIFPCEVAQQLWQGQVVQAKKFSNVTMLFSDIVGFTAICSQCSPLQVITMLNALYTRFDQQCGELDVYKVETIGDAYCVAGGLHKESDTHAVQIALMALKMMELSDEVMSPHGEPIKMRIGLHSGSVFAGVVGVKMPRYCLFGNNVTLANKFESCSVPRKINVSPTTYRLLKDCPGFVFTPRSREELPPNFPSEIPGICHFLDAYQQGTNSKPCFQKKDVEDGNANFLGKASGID
(1) The compound was diluted to a concentration of 10 mM using DMSO.
(2) A serial dilution of the compound was performed, resulting in 10 different concentration levels of each compound. 100 nL of each diluted compound was added to a 96-well plate.
3) Preparation of LNCap Cells
(1) LNCap culture medium: RPMI1640 supplemented with 10% fetal bovine serum (FBS) and 1% double antibody
(9) Assay buffer was added, and the cell concentration was adjusted to 3×10^6/mL.
4) Preparation and Addition of ODQ Solution
(1) 10 mM ODQ stock solution was diluted at a ratio of 1:1000 and added to the cell solution.
(2) After thorough mixing, the solution was added to a microplate at 10 μL per well.
5) Preparation of cGMP Standard Curve
(1) 1 mM cGMP stock solution was diluted to 10 μM using assay buffer. 11 concentration gradients were created through 4-fold serial dilutions.
(2) The diluted cGMP was added to the microplate at 10 μL per well.
6) Addition of Assay Reagents and Plate Reading
(1) cGMP-D2 was transferred to a 384-well plate at 5 μL per well. Anti-cGMP cryptate was transferred to a […] at 5 μL per well. Centrifugation was performed at 1500 rpm for 1 minute.
(2) Incubation was carried out at room temperature for 1 hour.
(3) The plates were read using envision at 665/615 wavelengths.
(1) cGMP standard curve: A standard curve was generated using GraphPad Prism, based on the ratio of cGMP concentration to the 665/615 wavelength values.
(2) Conversion of HTRF (homogeneous time-resolved fluorescence) ratio (665/615) to cGMP concentration: In GraphPad Prism, the HTRF ratio (665/615) was copied to the ratio column of the cGMP standard curve. The analysis “Log inhibitor vs response-variable slope” was run, and the “interpolate” option was selected to convert the HTRF ratio (665/615) into cGMP concentration.
(3) Compound activation curve: A curve was generated using the “Log agonist vs response-variable slope” analysis method in GraphPad Prism, based on the converted cGMP concentration and compound concentration.

The subject of series [1] is hepatocytes. Kind of series: In vitro hepatocyte metabolic stability, human. The series is classed as in vitro ADME. To be noted: test compound 1 μM, 0.5×10^6 cells/mL. The method, then: (§1) 1. Experimental Objective: The Aim of the Study was to Assess the Stability of the Compounds in Hepatocytes of Different Species.
(§2) A variety of 96-well precipitation plates were prepared and labeled as T0, T15, T30, T60, T90, T0-MC, T90-MC, and blank matrix, respectively. Revival medium and incubation medium were taken in advance and pre-warmed in a 37° C. water bath. Hepatocytes of different species, stored in a liquid nitrogen tank, were taken and immediately immersed in a 37° C. water bath for approximately 90 seconds. Once partially thawed, cells were transferred to centrifuge tubes containing 40 mL of revival medium, and gently inverted to resuspend the cells in the revival medium. At room temperature, cells were centrifuged at 100×g for 5 minutes. The supernatant was discarded, and the hepatocytes were resuspended in an appropriate volume of incubation medium. Viability was calculated using trypan blue staining. 198 μL of hepatocyte suspension (0.51×10^6 cells/mL) was added to pre-warmed incubation plates. For the control group, 198 μL of hepatocyte-free incubation medium was added to T0-MC and […] plates. All plates were pre-incubated for 10 minutes in a 37° C. incubator. […] All samples were mixed well and analyzed using LC/MS/MS methods.

Series [2] is described as follows: In vivo pharmacokinetic property study in male Sprague Dawley rats. How it is done:
Experimental objective: The aim of this study was to determine the pharmacokinetic parameters of the compound in male Sprague Dawley rats.
Sprague Dawley rats (male, 200 to 300 g, 7 to 9 weeks old, procured from Shanghai SLAC)
For this project, four male Sprague Dawley rats were used. Two rats in one group were administered the compound intravenously at a dosage of 2 mg/kg and a concentration of 0.4 mg/mL. Two rats in another group were administered the compound orally at a dosage of 10 mg/kg and a concentration of 1 mg/mL. Plasma samples were collected 0.083 (intravenous group only), 0.25, 0.5, 1, 2, 4, 6, 8, and 24 hours after administration. The collected samples were then analyzed using LC-MS/MS and data were collected. The collected analytical data were processed using Phoenix WinNonlin 6.3 software to calculate relevant pharmacokinetic parameters.

The subject of series [3] is hepatocytes. Nature of the series: In vitro hepatocyte metabolic stability, mouse. To be noted: test compound 1 μM, 0.5×10^6 cells/mL. It counts as in vitro ADME. How it is done:
as §1, §2

Series [4] deals with hepatocytes. Kind of series: In vitro hepatocyte metabolic stability, rat. The series is classed as in vitro ADME. To be noted: test compound 1 μM, 0.5×10^6 cells/mL. How it is done:
as §1, §2

With `C[C@H]([C@H](C(=O)Nc1cc(C(CC(=O)O)C2CCCC2)ccc1Cl)c1ccc(Cl)cc1)C(F)(F)F` (stereo partly drawn) [WX001], on sGC, the MEC is listed as 4.20 nM and the 50% effective concentration (EC50) (in general, the midpoint of the concentration-response curve) was 6.62 nM.

Regarding `C[C@H]([C@H](C(=O)Nc1cc([C@@H](CC(=O)O)C2CCCC2)ccc1Cl)c1ccc(Cl)cc1)C(F)(F)F` [WX002], at sGC, the MEC turned out to be 2.20 nM and the EC50 was 1.76 nM.

At sGC, `C[C@H]([C@H](C(=O)Nc1cc(C(CC(=O)O)C23CC(F)(C2)C3)ccc1Cl)c1ccc(Cl)cc1)C(F)(F)F` (stereo partly drawn) [WX004] showed an MEC of 0.61 nM and an EC50 of 3.74 nM.

Regarding `C[C@H]([C@H](C(=O)Nc1cc([C@@H](CC(=O)O)C23CC(F)(C2)C3)ccc1Cl)c1ccc(Cl)cc1)C(F)(F)F` [WX005], in the series with hepatocytes [1], the “CLint (liver)” value is reported as 49.7 mL/min/kg and the T1/2 stood at 1.29 h. Further, in series [2] (iv 2 mg/kg), the exposure (AUC) (as a rule, concentration integrated over time) was 11.228 µM·h; the Cl came to 5.47 mL/min/kg; the T1/2 is 3.83 h; the Vdss – broadly, the apparent volume that relates the amount in the body to the concentration in plasma or blood – was determined as 1.27 L/kg. In series [2] (po 10 mg/kg), this compound displayed an AUC of 17.423 µM·h and a T1/2 of 6.92 h. Also, the “% F” value in series [2] (po 10 mg/kg vs iv 2 mg/kg) came out at 42.1%. In the series on hepatocytes [3], the “CLint (liver)” value is 610.4 mL/min/kg and the T1/2 was 0.45 h. At sGC, this compound returned an MEC of 0.27 nM and an EC50 of 2.06 nM. Also, in the series on hepatocytes [4], the “CLint (liver)” value came out at 154.7 mL/min/kg and the T1/2 came to 0.698 h.

As for `C[C@H]([C@H](C(=O)Nc1cc(C(CC(=O)O)C23CC(F)(C2)C3)ccc1F)c1ccc(Cl)cc1)C(F)(F)F` (stereo partly drawn) [WX007], at sGC, the MEC is 0.65 nM and the midpoint of the response, the EC50, lay at 3.28 nM.

At sGC, `Cc1ccc(C(CC(=O)O)C23CC(F)(C2)C3)cc1NC(=O)C(c1ccc(Cl)cc1)[C@@H](C)C(F)(F)F` (stereo partly drawn) [WX010] registered an MEC of 1.76 nM and an EC50 of 2.16 nM.

At sGC, `Cc1ccc([C@@H](CC(=O)O)C23CC(F)(C2)C3)cc1NC(=O)[C@H](c1ccc(Cl)cc1)[C@@H](C)C(F)(F)F` [WX011] displayed an MEC of 1.39 nM and a half-maximal effective concentration (EC50) of 1.75 nM.

On sGC, `COC12CC(C(CC(=O)O)c3ccc(Cl)c(NC(=O)[C@H](c4ccc(Cl)cc4)[C@@H](C)C(F)(F)F)c3)(C1)C2` (stereo partly drawn) [WX013] yielded an MEC of 1.22 nM and a 50% effective concentration (EC50) of 3.5 nM.

On to `COC12CC([C@H](CC(=O)O)c3ccc(Cl)c(NC(=O)[C@H](c4ccc(Cl)cc4)[C@@H](C)C(F)(F)F)c3)(C1)C2` [WX014], for which, on sGC, the MEC is 0.42 nM and a half-maximal response (EC50) required 1.65 nM.

Consider `C[C@H]([C@H](C(=O)Nc1cc([C@@H](CC(=O)O)[C@H]2CCCO2)ccc1Cl)c1ccc(Cl)cc1)C(F)(F)F` [WX016], for which, on sGC, the MEC was 27.85 nM and a half-maximal effect (EC50) was put at 145 nM.
